Measured values reported in US7507749B2, “Antitumor agents” (priority 2001, dated 2009).
Like-named read-outs stand apart in the source and are kept apart here.

Test system: pancreatic ductal adenocarcinoma-03
Format: in vivo
Protocol: BDF1 female mice were obtained from N.C.I., CRL-Ral (D.O.B. was Feb. 26, 2001; D.O.A. was Mar. 10, 2001). The mice weighed an average of 22.5 gm. Mice were implanted SC with pancreatic ductal adenocarcinoma-03 passage 143. (D.O.T. was May 29, 2001; Td was 2.3 days).
The R-enantiomer of compound 22c was suspended in 3% ethanol, 1% POE-80, 0.25% sodium bicarbonate (by volume) to effect solution. dH2O was then added, and the pH adjusted to 7 with HCl. […] The R-enantiomer of compound 22b was suspended in 3% ethanol, 1% POE-80, 0.5% sodium-bicarbonate (by volume) to effect solution. Then, dH2O was added, and the pH adjusted to 7.5 with HCl. […] Adriamycin (source ADRIA; lot 2033BC) was suspended in dH2O to effect solution, and the pH was 6.0.
Treatment began six days following implant, at which time the tumors were palpable size (126 mg median). The duration of treatment was prolonged (18 days) in order to obtain a clear separation in efficacy between the compounds.

[1] = Cg 2, IV 80 mg/kg/inj days 6,9,12,15,18,21,24, total 560 mg/kg
[2] = Cg 3, IV 50 mg/kg/inj days 6,9,12,15,18,21,24, total 350 mg/kg
[3] = Cg 4, IV 31 mg/kg/inj days 6,9,12,15,18,21,24, total 217 mg/kg
[4] = Cg 5, total 592.8 mg/kg, text: SC 31.2 mg/kg/inj qd 6-24 (table prints days 6,9..24 IV)
[5] = Cg 12 in table (Cage 6 in text), total 370.5 mg/kg, text: SC 19.5 mg/kg/inj qd 6-24 (table prints IV)

Structure (SMILES): C[C@@H](Oc1ccc(Oc2ccc3ccc(Cl)cc3n2)cc1)C(=O)O [Compound R-22b, (R) 2-[4-(7-chloroquinolin-2-yloxy)phenoxy]propanoic acid]
- Behavior post injection (Cage 2, IV 80 mg/kg/inj, lasted only a few minutes): agitated post IV injection
- Neuromuscular toxicity (Cage 2, IV 80 mg/kg/inj, total 560 mg/kg): no neuromuscular toxicity
- Behavior post injection (Cage 5, SC 31.2 mg/kg/inj qd 6-24): not agitated post SC injection
- Behavior post injection (Cage 6 in text, SC 19.5 mg/kg/inj qd 6-24): not agitated post SC injection
- % Body Wt change between day 6 and day 24 [1]: +3.7%
- % T/C mass [1]: 14.1%
- Activity Rating [1]: +++ (2.0-2.8)
- CR's [1]: 0/7
- Drug Deaths [1]: 0/7
- Growth Delay [1]: 17.5 days
- Log Kill [1]: 2.3
- Median Tumor Mass on Day 24 (Range) [1]: 320 mg
- Median time for tumors to 1,000 mg (range) [1]: 34 days
- PR's [1]: 2/7
- Tumor Free day-157 [1]: 0/7
- % Body Wt change between day 6 and day 24 [2]: +8.8%
- % T/C mass [2]: 29.1%
- Activity Rating [2]: ++ (1.3-1.9)
- CR's [2]: 1/6
- Drug Deaths [2]: 0/6
- Growth Delay [2]: 11.5 days
- Log Kill [2]: 1.5
- Median Tumor Mass on Day 24 (Range) [2]: 658 mg
- Median time for tumors to 1,000 mg (range) [2]: 28 days
- PR's [2]: 1/6
- Tumor Free day-157 [2]: 0/6
- % Body Wt change between day 6 and day 24 [3]: +10.4%
- % T/C mass [3]: 76.2%
- Activity Rating [3]: − (<0.7)
- CR's [3]: 0/6
- Drug Deaths [3]: 0/6
- Growth Delay [3]: 3.5 days
- Log Kill [3]: 0.5
- Median Tumor Mass on Day 24 (Range) [3]: 1722 mg
- Median time for tumors to 1,000 mg (range) [3]: 20 days
- PR's [3]: 0/6
- Tumor Free day-157 [3]: 0/6
- % Body Wt change between day 6 and day 24 [4]: +3.5%
- % T/C mass [4]: 48.9%
- Activity Rating [4]: + (0.7-1.2)
- CR's [4]: 1/5
- Drug Deaths [4]: 0/5
- Growth Delay [4]: 6.5 days
- Log Kill [4]: 0.9
- Median Tumor Mass on Day 24 (Range) [4]: 1105 mg
- Median time for tumors to 1,000 mg (range) [4]: 23 days
- PR's [4]: 1/5
- Tumor Free day-157 [4]: 1/5
- % Body Wt change between day 6 and day 24 [5]: +10.3%
- % T/C mass [5]: 82.7%
- Activity Rating [5]: − (<0.7)
- CR's [5]: 0/5
- Drug Deaths [5]: 0/5
- Growth Delay [5]: 3.0 days
- Log Kill [5]: 0.4
- Median Tumor Mass on Day 24 (Range) [5]: 1868 mg
- Median time for tumors to 1,000 mg (range) [5]: 19.5 days
- PR's [5]: 0/5
- Tumor Free day-157 [5]: 0/5
